The subject of series [1] is reserpine-induced hypothermia. The experiment in a line: Anti-reserpine activity (antagonism against reserpine-induced hypothermia). As to conditions: Mus musculus; minimum dose necessary for increasing body temperature of reserpine-treated mice significantly (P < 0.05) over control; reserpine 2.5 mg/kg i.p., test compound (hydrochloride) oral 18 hours later. The class given is in vivo, male ddy mice. The protocol:
(§1) Each test compound is used in the form of a hydrochloride.
(1) Anti-reserpine activity:
The antagonism against the reserpine-induced hypothermia is examined according to the method of B. M. Askew (Life Science, 4, 725-730, 1963).
Male ddy mice having a body weight of 19 to 25 g are used as the test animal. Reserpine is injected intraperitoneally in dose of 2.5 mg/kg, and 18 hours after the injection, the test compound is orally administered and the change of the body temperature with the lapse of time is examined by using a thermistor type thermometer (Model MGA III manufactured by Shibaura Denshi).
The effect of each compound is examined with 2 to 4 dose levels.
Each of the test compound is used in the form of an aqueous solution. The control animal is treated with physiological saline solution. Four animals having a body temperature of 24° to 25° C., 18 hours after the injection of reserpine, are used for each dose. The experiment is carried out in a room at 23° to 25° C.
^(a) The minimum dose necessary for increasing the body temperature o

In series [2] the test system is spontaneous motility. The experiment in a line: Influence on spontaneous motility. The class given is in vivo, male ddy mice. As to conditions: Mus musculus, 1 h; 40 mg/kg oral, hydrochloride, 60 minutes before start; 60 minutes measurement; * = significant at P <0.05; read-out: Relative Spontaneous Motility (%) to Control. The protocol: as §1
(2) Influence on spontaneous motility:
The spontaneous motility is examined according to the method of T. H. Sevensson (Psychopharmacologia, 14, 157, 1969). Three ddy male mice having a body weight of 20 to 25 g are put in a black observation box of an acrylic resin as one group, and the amount of the spontaneous motility during a period of 60 minutes is measured and recorded by using Animex (manufactured by Farrod Co., Sweden).
Sixty minutes before the start of the measurement of the spontaneous motility, the test compound is orally administered in a dose of 40 mg/kg. The control animal is treated with physiological saline solution. Five groups (15 mice) are used for each dose level.
*Significant increase of the spontaneous motility at P <0.05

The nature of series [3]: Acute toxicity (lethal action). Particulars: mouse, in vivo, mice, hydrochloride, read-out: Acute Toxicity (Lethal Ratio %). The protocol: as §1
The test compound is administered in a dose of 100 or 400 mg/kg to mice for examining the lethal action. Five mice are used for each dose level. The lethal ratio is measured 24 hours after oral administration.

Series [4] relates to dopamine and its metabolites in the mouse brain. The experiment in a line: Effect on the level of dopamine and its metabolites in the mouse brain. The class given is in vivo. From the text: Furthermore, we investigated the effect of the compound of the present invention (compound H and I) on the level of dopamine and its metabolites in the mouse brain. […] This means that the compounds of the invention antagonize against the reserpine-induced depression in a way completely different from the known tricyclic antidepressant.

Series [5] deals with spontaneous motility. Briefly: Influence on spontaneous motility. The class given is in vivo, male ddy mice. As to conditions: Mus musculus, po, 1 h; 10 mg/Kg P.O. (footnote b), hydrochloride; * = significant at P <0.05; read-out: Relative Spontaneous Motility (%) to Control.

SMILES strings stand for the structures. Where two headings read alike, the source gives them in different places.

The term minimal effective dose denotes the lowest level tested that produced the effect sought. The compound `Cc1ccc(-n2ccnc2C)cc1C` [A, 1-(3,4-Dimethylphenyl)-2-methylimidazole] yielded a minimal effective dose in series [1] of 2.5 mg/kg. For the same compound, the response vs control in vivo at 40 mg/kg in the series with spontaneous motility [2] stood at 82 ± 6%. For the same compound, the results for the mortality at 24 h in series [3] (100 mg/Kg oral) and in series [3] (400 mg/Kg oral) were 0% and 100%, respectively.

In turn, `Cc1nccn1-c1ccc(N(C)C)cc1` [B, 1-(4-Dimethylaminophenyl)-2-methylimidazole] showed a minimal effective dose in series [1] of 2.5 mg/kg. The response vs control in vivo at 40 mg/kg in the series with spontaneous motility [2] amounted to 526 ± 24%. Further, the results for the mortality at 24 h in series [3] (100 mg/Kg oral) and in series [3] (400 mg/Kg oral) were 0% and 80%, respectively.

In series [1], `CCc1nccn1-c1ccc(Cl)c(Cl)c1` [C, 1-(3,4-Dichlorophenyl)-2-ethylimidazole] came in with a minimal effective dose of 1.25 to 2.5 mg/kg. Besides, the response vs control in vivo at 40 mg/kg with spontaneous motility [2] was 99 ± 7%. For the same compound, the values for the mortality at 24 h in series [3] (100 mg/Kg oral) and in series [3] (400 mg/Kg oral) were 0% and 20%, respectively.

As for `Cc1cn(-c2ccc(N)cc2)c(C)n1` [D, 1-(4-Aminophenyl)-2,4-dimethylimidazole], the minimal effective dose in series [1] turned out to be 5 mg/kg. In addition, the response vs control in vivo at 40 mg/kg in the series with spontaneous motility [2] was found to be 473 ± 48%. Moreover, the mortality at 24 h amounted to 0% in series [3] (100 mg/Kg oral) and 60% in series [3] (400 mg/Kg oral).

In series [1], `Cc1nccn1-c1ccc(N)c(C(F)(F)F)c1` [E, 1-(3-Trifluoromethyl-4-aminophenyl)-2-methylimidazole] registered a minimal effective dose of 5 mg/kg. In addition, the response vs control in vivo at 40 mg/kg in the series on spontaneous motility [2] was determined as 70 ± 8%. The mortality at 24 h in series [3] (100 mg/Kg oral) and in series [3] (400 mg/Kg oral) was 0% in each case.

The compound `CCc1nccn1-c1ccc(N)cc1` [F, 1-(4-Aminophenyl)-2-ethylimidazole] registered a minimal effective dose in series [1] of 1.25 mg/kg. The response vs control in vivo at 40 mg/kg in the series with spontaneous motility [2] was 382 ± 25%. Also, the figures for the mortality at 24 h in series [3] (100 mg/Kg oral) and in series [3] (400 mg/Kg oral) were 0% and 60%, respectively.

Consider `Cc1nccn1-c1ccc(N)cc1Cl` [G, 1-(2-Chloro-4-aminophenyl)-2-methylimidazole], for which the minimal effective dose in series [1] was 10 mg/kg. The response vs control in vivo at 40 mg/kg with spontaneous motility [2] is 254 ± 68%. Besides, the mortality at 24 h in series [3] (100 mg/Kg oral) turned out to be 0%; in series [3] (400 mg/Kg oral), 40%.

Turning to `Cc1nccn1-c1cccc(N)c1` [H, 1-(3-Aminophenyl)-2-methylimidazole], in series [4], the “dopamine turnover in the brain” value is reported as “reduce dopamine turnover in the brain”. For the same compound, the minimal effective dose in series [1] came to 2.5 mg/kg. Also, in the series on spontaneous motility [2], the response vs control in vivo at 40 mg/kg was determined as 83 ± 3%. For the same compound, the mortality at 24 h in series [3] (100 mg/Kg oral) and in series [3] (400 mg/Kg oral) was 0% in each case.

In the case of `Cc1ccc(-n2ccnc2C)cc1N` [I, 1-(3-Amino-4-methylphenyl)-2-methylimidazole], the “dopamine turnover in the brain” value in series [4] is “reduce dopamine turnover in the brain”. Besides, in series [1], the minimal effective dose amounted to 5 mg/kg. The response vs control in vivo at 40 mg/kg with spontaneous motility [2] was determined as 58 ± 8%. For the same compound, the mortality at 24 h in series [3] (100 mg/Kg oral) is 0%; in series [3] (400 mg/Kg oral), 20%.

Regarding `CCCCNc1ccc(-n2ccnc2C)cc1` [J, 1-(4-n-Butylaminophenyl)-2-methylimidazole], the minimal effective dose in series [1] is 5 mg/kg. Further, the response vs control in vivo at 40 mg/kg in the series on spontaneous motility [2] is 543 ± 57%. In addition, the mortality at 24 h worked out at 0% in series [3] (100 mg/Kg oral) and 60% in series [3] (400 mg/Kg oral).

The compound `Cc1nccn1-c1ccc(N)cc1` [K, 1-(4-Aminophenyl)-2-methylimidazole] showed a minimal effective dose in series [1] of 1.25 mg/kg. For the same compound, the mortality at 24 h in series [3] (100 mg/Kg oral) is 40%; in series [3] (400 mg/Kg oral), 80%. Besides, in the series with spontaneous motility [5], the response vs control in vivo at 10 mg/kg was 350 ± 31%.

With `Cc1nccn1-c1ccc(NC(=O)c2ccc(Cl)cc2)cc1` [L, 1-[4-(4-Chlorobenzoylamino)phenyl]-2-methylimidazole], the minimal effective dose in series [1] worked out at 10 mg/kg. Also, the response vs control in vivo at 40 mg/kg in the series with spontaneous motility [2] was determined as 367 ± 30%. The mortality at 24 h in series [3] (100 mg/Kg oral) and in series [3] (400 mg/Kg oral) was 0% each time.

The compound `Cc1nccn1-c1ccc(NC(=O)c2ccc(F)cc2)cc1` [M, 1-[4-(4-Fluorobenzoylamino)phenyl]-2-methylimidazole] had a minimal effective dose in series [1] of 10 mg/kg. Besides, in the series with spontaneous motility [2], the response vs control in vivo at 40 mg/kg stood at 229 ± 30%. The mortality at 24 h in series [3] (100 mg/Kg oral) and in series [3] (400 mg/Kg oral) was 0% in each case.

In series [1], `CCc1nccn1-c1ccc(NC(=O)c2ccc(Cl)cc2)cc1` [N, 1-[4-(4-Chlorobenzoylamino)phenyl]-2-ethylimidazole] gave a minimal effective dose of 2.5 mg/kg. In addition, the response vs control in vivo at 40 mg/kg with spontaneous motility [2] stood at 207 ± 51%. For the same compound, the mortality at 24 h in series [3] (100 mg/Kg oral) and in series [3] (400 mg/Kg oral) was 0% throughout.

Take `CCc1nccn1-c1ccc(NC(=O)c2ccc(C)cc2)cc1` [O, 1-[4-(4-Methylbenzoylamino)phenyl]-2-ethylimidazole]: the minimal effective dose in series [1] amounted to 5 mg/kg. Further, the response vs control in vivo at 40 mg/kg in the series with spontaneous motility [2] was determined as 287 ± 23%. Further, the mortality at 24 h in series [3] (100 mg/Kg oral) amounted to 0%; in series [3] (400 mg/Kg oral), 20%.

In series [1], `CC(C)c1nccn1-c1ccc(NC(=O)c2ccc(Cl)cc2)cc1` [P, 1-[4-(4-Chlorobenzoylamino)phenyl]-2-isopropylimidazole] came in with a minimal effective dose of 10 mg/kg. Besides, the response vs control in vivo at 40 mg/kg in the series with spontaneous motility [2] amounted to 92 ± 14%. Besides, the mortality at 24 h in series [3] (100 mg/Kg oral) and in series [3] (400 mg/Kg oral) was 0% throughout.

Regarding `Cc1ccc(C(=O)Nc2ccc(-n3ccnc3C)cc2)cc1` [Q, 1-[4-(4-Methylbenzoylamino)phenyl]-2-methylimidazole], the minimal effective dose in series [1] was determined as 10 mg/kg. For the same compound, the response vs control in vivo at 40 mg/kg with spontaneous motility [2] turned out to be 447 ± 51%. The mortality at 24 h in series [3] (100 mg/Kg oral) came to 0%; in series [3] (400 mg/Kg oral) it was 40%.

For the origin of these results see US4301169A, “Novel imidazole compound and anti-depressing agent containing the same” (Eisai Co., Ltd., priority 1978, dated 1981).
